Experimental data reported in patent US9474758B2, “Thienopyrimidinedione derivatives as TRPA1 modulators” (Glenmark Pharmaceuticals S.A., priority 2009, dated 2016).

Key:
[1] = biological target: T1, Rat TRPA1 expressing CHO cells (Rattus norvegicus, UniProt Q6RI86); test: 45Calcium uptake assay, inhibition of AITC induced calcium uptake (rat); type: cell-based; details: rat TRPA1 CHO cells, AITC 10 μM; for inhibition at 1 µM: compound 1.0 μM, read-out: Percentage inhibition at 1.0 μM; for inhibition at 10 µM: compound 10.0 μM, read-out: Percentage inhibition at 10.0 μM
T1 construct: expressed in transfected cells; host or cells: CHO cells (Zeocin selection)
In short: (§1)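 CHO cells expressing rat or human TRPA1 were pre-treated with compound for 10 min, then given AITC (30 μM human, 10 μM rat) plus 5 μCi/ml 45Ca2+ for 3 min; final DMSO 0.5%. Lysate radioactivity was counted by scintillation. IC50 came from nonlinear regression of concentration-response curves as % of maximal response.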

[2] = biological target: T2, Human TRPA1 expressing CHO cells (Homo sapiens, UniProt O75762); test: 45Calcium uptake assay, inhibition of AITC induced calcium uptake (human); type: cell-based; details: human TRPA1 CHO cells, AITC 30 μM; for inhibition at 1 µM: compound 1.0 μM, read-out: Percentage inhibition at 1.0 μM; for inhibition at 10 µM: compound 10.0 μM, read-out: Percentage inhibition at 10.0 μM; for IC50: read-out: Human IC50 value (Range)
T2 construct: expressed in transfected cells; host or cells: CHO cells (G-418 selection)
In short: as §1

T1 sequence (Q6RI86 whole entry): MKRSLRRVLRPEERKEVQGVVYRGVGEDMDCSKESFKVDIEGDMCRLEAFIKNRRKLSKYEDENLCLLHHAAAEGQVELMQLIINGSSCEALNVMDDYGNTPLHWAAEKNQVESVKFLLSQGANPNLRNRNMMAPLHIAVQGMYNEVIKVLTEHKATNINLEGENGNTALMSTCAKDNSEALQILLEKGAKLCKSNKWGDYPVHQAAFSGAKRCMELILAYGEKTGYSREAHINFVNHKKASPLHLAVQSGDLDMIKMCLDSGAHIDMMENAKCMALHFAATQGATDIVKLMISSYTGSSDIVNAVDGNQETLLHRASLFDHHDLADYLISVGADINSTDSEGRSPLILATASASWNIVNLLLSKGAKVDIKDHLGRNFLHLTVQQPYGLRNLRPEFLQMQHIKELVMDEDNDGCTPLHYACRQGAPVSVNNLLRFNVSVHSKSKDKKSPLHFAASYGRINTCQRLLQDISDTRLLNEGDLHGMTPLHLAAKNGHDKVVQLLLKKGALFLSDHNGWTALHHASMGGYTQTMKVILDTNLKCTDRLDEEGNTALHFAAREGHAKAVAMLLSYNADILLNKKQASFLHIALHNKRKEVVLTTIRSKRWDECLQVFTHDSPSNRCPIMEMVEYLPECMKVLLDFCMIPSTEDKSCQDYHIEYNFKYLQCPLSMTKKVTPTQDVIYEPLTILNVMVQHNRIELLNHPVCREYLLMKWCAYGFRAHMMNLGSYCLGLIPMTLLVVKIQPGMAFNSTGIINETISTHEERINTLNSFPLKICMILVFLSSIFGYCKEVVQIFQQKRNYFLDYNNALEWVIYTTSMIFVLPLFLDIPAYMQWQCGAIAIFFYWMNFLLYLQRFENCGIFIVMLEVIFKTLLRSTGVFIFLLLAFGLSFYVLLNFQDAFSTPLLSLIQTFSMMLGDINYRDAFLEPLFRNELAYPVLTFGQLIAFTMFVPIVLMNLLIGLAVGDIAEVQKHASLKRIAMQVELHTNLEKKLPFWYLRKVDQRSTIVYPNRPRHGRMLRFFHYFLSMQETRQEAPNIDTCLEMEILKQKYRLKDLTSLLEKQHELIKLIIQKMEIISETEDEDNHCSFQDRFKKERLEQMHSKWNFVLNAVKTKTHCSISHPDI
T2 sequence (O75762 whole entry): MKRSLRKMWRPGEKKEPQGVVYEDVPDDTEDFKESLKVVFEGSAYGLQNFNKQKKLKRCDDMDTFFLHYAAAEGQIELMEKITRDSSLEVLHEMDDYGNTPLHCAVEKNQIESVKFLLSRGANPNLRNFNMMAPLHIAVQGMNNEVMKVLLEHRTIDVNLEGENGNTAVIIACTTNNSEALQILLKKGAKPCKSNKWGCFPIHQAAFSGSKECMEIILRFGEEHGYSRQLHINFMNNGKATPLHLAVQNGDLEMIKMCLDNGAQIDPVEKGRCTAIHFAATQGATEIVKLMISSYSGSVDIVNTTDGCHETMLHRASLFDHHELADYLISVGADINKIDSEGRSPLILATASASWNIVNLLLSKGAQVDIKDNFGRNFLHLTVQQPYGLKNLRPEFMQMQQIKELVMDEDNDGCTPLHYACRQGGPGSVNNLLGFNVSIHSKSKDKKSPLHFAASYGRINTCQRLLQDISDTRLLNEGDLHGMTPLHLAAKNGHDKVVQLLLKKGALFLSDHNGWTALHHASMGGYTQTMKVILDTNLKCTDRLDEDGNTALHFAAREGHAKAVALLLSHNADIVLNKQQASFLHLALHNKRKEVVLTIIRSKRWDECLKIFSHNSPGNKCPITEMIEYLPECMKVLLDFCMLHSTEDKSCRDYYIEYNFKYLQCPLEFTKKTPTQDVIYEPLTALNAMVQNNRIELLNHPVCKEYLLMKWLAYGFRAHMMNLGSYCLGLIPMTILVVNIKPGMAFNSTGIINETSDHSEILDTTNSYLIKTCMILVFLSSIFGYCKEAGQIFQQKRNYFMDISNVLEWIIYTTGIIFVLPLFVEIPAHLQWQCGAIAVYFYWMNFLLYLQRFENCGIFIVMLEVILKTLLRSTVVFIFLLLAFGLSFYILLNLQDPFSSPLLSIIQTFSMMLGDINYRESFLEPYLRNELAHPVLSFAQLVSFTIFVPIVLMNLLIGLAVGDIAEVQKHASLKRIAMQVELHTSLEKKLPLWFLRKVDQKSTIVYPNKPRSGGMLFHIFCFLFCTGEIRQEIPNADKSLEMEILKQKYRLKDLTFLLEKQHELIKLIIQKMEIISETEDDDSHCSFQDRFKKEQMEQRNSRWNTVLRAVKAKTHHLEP

SMILES | inhibition at 1 µM [1] [%] | inhibition at 10 µM [1] [%] | inhibition at 1 µM [2] [%] | inhibition at 10 µM [2] [%] | IC50 [2] [µM]
Cn1c(=O)c2c(CC(=O)Nc3nc(-c4cc(F)c(OC(F)F)c(F)c4)cs3)scc2n(C)c1=O [Example 59, N-{4-[4-(Difluoromethoxy)-3,5-difluorophenyl]-1,3-thiazol-2-yl}-2-(1,3-dimethyl-2,4-dioxo-1,2,3,4-tetrahydrothieno[3,4-d]pyrimidin-5-yl)acetamide] | 12.7 | 87.6 | 89.3 | 91.4 | < 0.05
Cn1c(=O)c2c(CC(=O)Nc3nc(-c4cc(F)c(OCC(F)(F)F)c(F)c4)cs3)scc2n(C)c1=O [Example 60, N-{4-[3,5-Difluoro-4-(2,2,2-trifluoro-ethoxy)phenyl]-1,3-thiazol-2-yl}-2-(1,3-dimethyl-2,4-dioxo-1,2,3,4-tetrahydrothieno[3,4-d]pyrimidin-5-yl)acetamide] | 21 | 95.9 | 98 | 97.4 | < 0.05
